Test system: aP2 and PPAR GAMMA receptor mRNA in 3T3-L1 cells
Assay: Northern blot of adipocyte markers in 3T3-L1 cells infected with MFG-Neo or MFG-REV retrovirus
Type: cell-based
Details: control cells (MFG-Neo)
Experimental: 3T3-L1 cells were infected with either MFG-Neo or MFG-REV retrovirus and treated for 8 days with a mixture containing IBMX and insulin (“Mix”), with or without 1 μM rosiglitazone. mRNA was then extracted and analyzed by Northern blot using the indicated probes.
RNA extraction and Northern blot analyses were carried out according to the previously described method (Staels, B. et al., Arteriosclerosis and Thrombosis 1992, 12(3): 286-294) using rat Rev-erb alpha, murine PPAR gamma and murine aP2, chicken beta-actin and human 36B4 cDNA probes.
Cells post-confluent after two days of culture (designated day D0) were transferred to differentiation medium (DMEM, 10% FCS, 1 μM dexamethasone, 10 μg/ml insulin and 0.5 mM 3-methyl-1-isobutylxanthine (IBMX) (Sigma, St Louis, Mo., USA)) for two days. Cells were then grown in post-differentiation medium (DMEM, 10% FCS, insulin) with or without rosiglitazone. The medium was changed every day. Stable 3T3-L1 pre-adipocytes expressing the REV-ERB ALPHA receptor were grown in the same conditions but differentiated without dexamethasone. After the treatment, cells were fixed with 10% formaldehyde in PBS and stained with Oil Red O (Sigma, St Louis, Mo., USA). Alternatively, total RNA was extracted as described earlier.
3T3-L1 pre-adipocytes were then infected with the resulting virus. […]

In the case of CN(CCOc1ccc(CC2SC(=O)NC2=O)cc1)c1ccccn1 (stereo not shown) [rosiglitazone], the “time until high aP2 and PPAR GAMMA receptor mRNA levels were observed” value is reported as 8 to 12 days.
